Our source for the solubility, recovery times and severity of symptoms values is US20220117957A1, “TREATMENT METHOD FOR CORONAVIRUS INFECTION” (priority 2020, published 2022).

For data set [1] the following is noted: organic solvents; water at acidic pH; cited from earlier work.
Another data set relates to SARS-CoV-2. It is filed as in vivo. Conditions: individuals infected with SARS-CoV-2 treated with Rifampin.

For `CO[C@H]1/C=C/O[C@@]2(C)Oc3c(C)c(O)c4c(O)c(c(/C=N/N5CCN(C)CC5)c(O)c4c3C2=O)NC(=O)/C(C)=C\C=C\[C@H](C)[C@H](O)[C@@H](C)[C@@H](O)[C@@H](C)[C@H](OC(C)=O)[C@@H]1C` [Rifampin], in data set [1], the solubility entry was “soluble in organic solvents and in water at acidic pH”. For the same compound, in the data set with SARS-CoV-2, the recovery times entry is recorded as “much faster recovery times” and the severity of symptoms entry is on record as “less severe symptoms”.
